Measurements: patent publication US9308270B2, “Pharmaceutical composition on the basis of nanomicelles containing epigallocatechin gallate and a method of administration thereof to treat atopic dermatitis, Crohn's disease, adenomyosis, and hyperplastic diseases of the prostate gland” (NORDIC LABS LIMITED, priority 2011, dated 2016)

Assays:
[1] = Pharmacokinetic study of EGCG in rat plasma after peroral administration; format: in vivo; settings: for AUC0-24 hr / Cmax: rat plasma
Method: Experiments were conducted on laboratory rats of Sprague-Dawley breed weighing between 250 g and 350 g. All studies on animals were conducted in accordance with “Guidelines for Care and Use of Experimental Animals,” […] At fixed time intervals (10 and 30 minutes, 1, 1.5, 2, 3, 8, and 24 hours), blood samples were drawn from the animals and, following centrifuging, plasma was drawn from the samples for analysis, refrigerated, and kept at −80° C. until it was needed for studies. For analytical studies to be conducted, the plasma samples were unfrozen, centrifuged, and divided into aliquots of 0.1 ml each. The samples were extracted three times in 2 ml of ethyl acetate for 5 minutes at constant shaking. Following extraction, the samples were centrifuged at 1,000 r.p.m. for 10 minutes. The supernatant was separated and placed in a glass tube.

[2] = system: rats; test: Toxicity observed in the rat pharmacokinetic study; format: in vivo; settings: peroral, maximum dose 2,500 mg/kg (G-1), without formulation
Method: At fixed time intervals (10 and 30 minutes, 1, 1.5, 2, 3, 8, and 24 hours), blood samples were drawn from the animals and, following centrifuging, plasma was drawn from the samples for analysis, refrigerated, and kept at −80° C. until it was needed for studies.

[3] = Dependence of EGCG concentration in rat plasma on dose; format: in vivo; settings: different doses, FIG. 2
[4] = cited from earlier work

epigallocatechin-3-gallate [EGCG] gave an AUC0-24 hr ([1]; 500 mg/kg) of 49.23 ± 4.95 µg·h/mL, a Cmax ([1]; 500 mg/kg) of 10650 ± 1140 ng/mL and an AUC0-24 hr ([1]; 2.5 g/kg (G-1)) of 179.2 ± 54.33 µg·h/mL. For the same substance, the Cmax ([1]; 2.5 g/kg (G-1)) was 58600 ± 22400 ng/mL, the “EGCG concentration level in plasma” value ([1]; rat, 100 mg/kg (G-5)) was “below LOQ” and the toxicity [2] was “toxic to the animals”. For the same substance, the “dependence of EGCG concentration in rat plasma on dose” value [3] was “nonlinear pattern and reached a plateau at the 500 mg/kg dose”, the “EGCG concentration in human plasma” value ([4]; maximum possible tea drinking during the day) was 326 ng/mL and the “maximum concentration of EGCG in plasma” value ([4]; patients taking preparations containing green tea catechins) was at most 1 μm.
